Test results taken from US10093675B2, “6,8-disubstituted-9-(heterocyclyl)purines, compositions containing these derivatives and their use in cosmetic and medicinal applications” (USTAV EXPERIMENTALNI BOTANIKY AV CR, V.V.I., priority 2014, dated 2018).
Like-named read-outs stand apart in the source and are kept apart here.

How the values were obtained:
[1] = tested on: detached leaves of Triticum aestivum cv. Hereward; test: Membrane lipid peroxidation (MDA, TBA method) in detached wheat leaves during dark senescence; assay type: in vivo; details: four days in the dark, Control 18.9 (±2.2)
Procedure: A typical symptom associated with senescence as a direct consequence of increased reactive oxygen species is lipid peroxidation. Therefore the levels of MDA, a decomposition product of lipid peroxidation, were measured in detached wheat leaves that were exposed to the prepared novel derivatives and kinetin for four days in the dark as described in Example 8. MDA levels were measured using a thiobarbituric acid (TBA) method. In detail, 100 mg of fresh plant material was homogenized by high speed shaking in a ball mill (MM301, Retsch, Germany) with 1 mL of 80% methanol. The crude extract was centrifuged at 10,000×g for 5 min, and 100 μL aliquot of supernatant was vortexed with 100 μL of 0.5% (w/v) TBA containing 0.1% (w/v) trichloroacetic acid, and the resulting solution was then incubated for 30 min at 95° C. The samples were quickly cooled on ice and recentrifuged for 5 min at 1000×g. The absorbance of supernatant was measured at 532 nm with background subtraction at 600 nm and the amount of MDA-TBA complex was calculated from the coefficient of absorbance 155 mM^−1cm^−1.
Seeds of winter wheat, Triticum aestivum cv. Hereward, were washed under running water for 24 hours and then sown on vermiculite soaked with Knop's solution. They were placed in the grown chamber at 25° C. with a 16/8 hours light period at […]. After 7 days, the first leaf was fully developed and the second leaf had started to grow. A tip section of the first leaf, approximately 35 mm long, was removed from 5 seedlings and trimmed slightly to a combined weight of 100 mg. The basal ends of the five leaf tips were placed in the wells of a microtiter polystyrene plate containing […] of a cytokinin solution each. The entire plate was inserted into a plastic box lined with paper tissues soaked in distilled water to prevent leaf sections from drying out. After 96 hours incubation in the dark at 25° C., the leaves were removed and chlorophyll extracted by heating at 80 C for 10 min in 5 ml of 80% ethanol (v/v). The sample volume was then restored to 5 ml by the addition of 80% ethanol (v/v). The absorbance of the extract was recorded at 665 nm. In addition, chlorophyll extracts from fresh leaves and leaf tips incubated in deionized water were measured. From the obtained data, the concentration with highest activity was selected for each compound tested. Relative activity of the compound at this concentration was calculated (see Table 6 below). The activity obtained for 10^−4 M kinetin (Kin) was set as 100%. The values shown are means of five replicates and the whole experiment was repeated twice.

[2] = tested on: erytroid leukemia cell line K-562; test: In vitro cytotoxic activity (Calcein AM), K-562; assay type: cell-based, human; details: read-out: Cell line tested/IC50 (μmol/L) K-562
Excerpt: (§1) Because toxic compounds negatively influence metabolic processes of cells, many standard cytotoxicity assays are based on measurement of metabolisation rate of various artificial substrates. Resulting product is then quantified, for example, by means of spectrometry. The assays can be easily modified for use in 96-well plates. For evaluation of cytotoxicity of the […] of this invention, a microtiter assay based on quantification of metabolisation of Calcein AM was used. The assay is widely used in drug screening programs and in chemosensitivity testing. In live cells, Calcein AM is enzymatically hydrolysed and accumulation of resulting calcein is manifested by green fluorescence.
(§2) The following human cell lines were used for routine screening of the compounds: normal diploid fibroblasts BJ, T-lymphoblastic leukemia cell line CEM, promyelocytic leukemia cell line HL-60, erytroid leukemia cell line K-562, breast carcinoma cell line MCF-7, osteosarcoma cell line HOS and melanoma cell line G-361. The cells were maintained in Nunc/Corning 80 cm^2 plastic tissue culture flasks and cultured in cell culture medium (DMEM with 5 g/l glucose, 2 mM glutamine, 100 U/ml penicillin, 100 mmg/ml streptomycin, 10% fetal calf serum and sodium bicarbonate). The cell suspensions were prepared and diluted according to the particular cell type and the expected target cell density (2.500-30.000 cells per well based on cell growth characteristics) and pipetted (80 μl) into 96-well plates. Inoculates were allowed a pre-incubation period of 24 hours at 37° C. and 5% CO2 for stabilization. Tested compound was added in total volume of 20 μl of water at time zero. Usually, test compound was evaluated at six 3-fold dilutions. In routine testing, the highest concentration tested was 100 μM, but it could have been adjusted because of limited solubility of a compound. All drug concentrations were tested in triplicates.
(§3) Incubations of cells with the test compounds lasted for 72 hours at 37° C., in 5% CO2 atmosphere and 100% humidity. At the end of incubation period Calcein AM in PBS was added into final concentration of 1 μg/ml. After another 1 hour of incubation fluorescence (FD) was measured with the Labsystem FIA Reader Fluoroscan Ascent (UK). Growth inhibition (GI) was estimated using the following equitation: GI=(mean FDdrug exposed wells−mean FDblank)/(mean FDcontrol wells−mean FDblank)×100%. The GI50 value, the drug concentration causing 50% reduction of Calcein AM conversion, was calculated from the obtained dose response curves.

[3] = tested on: T-lymphoblastic leukemia cell line CEM; test: In vitro cytotoxic activity (Calcein AM), CEM; assay type: cell-based, human; details: 72 hours, read-out: Cell line tested/IC50 (μmol/L) CEM
Excerpt: as §1, §2, §3

[4] = tested on: excised wheat leaf tips (Triticum aestivum cv. Hereward); test: Senescence inhibition on winter wheat leaf segments (retention of chlorophyll); assay type: in vivo; details: 10^−4 mol/L; 96 hours in the dark; activity of kinetin set at 100%
Outline: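 First-leaf tips from 7-day-old wheat seedlings stood with their bases in test solution for 96 h in the dark at 25° C. Chlorophyll was then extracted in hot 80% ethanol and read at 665 nm. Activity at each compound's best concentration is relative to 10^−4 M kinetin (100%), as means of five replicates.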

[5] = tested on: normal diploid fibroblasts BJ; test: In vitro cytotoxic activity (Calcein AM), BJ; assay type: cell-based, human; details: 72 hours, read-out: Cell line tested/IC50 (μmol/L) BJ
Excerpt: as §1, §2, §3

[6] = tested on: osteosarcoma cell line HOS; test: In vitro cytotoxic activity (Calcein AM), HOS; assay type: cell-based, human; details: 72 hours, read-out: Cell line tested/IC50 (μmol/L) HOS
Excerpt: as §1, §2, §3

melanoma cell line G-361 = test: In vitro cytotoxic activity (Calcein AM), G-361; assay type: cell-based, human; details: read-out: Cell line tested/IC50 (μmol/L) G-361
Excerpt: as §1, §2, §3

[7] = tested on: breast carcinoma cell line MCF-7; test: In vitro cytotoxic activity (Calcein AM), MCF-7; assay type: cell-based, human; details: read-out: Cell line tested/IC50 (μmol/L) MCF7
Excerpt: as §1, §2, §3

[8] = tested on: Human diploid fibroblast BJ; test: In vitro cytotoxic activity (MTT); assay type: cell-based; details: 72 hours incubation; concentration causing 20% decrease in mitochondrial dehydrogenase activity
Procedure: MTT (metabolic tetrazolium toxicity) assay is a standard colorimetric assay for evaluation of cytotoxicity. Mitochondrial dehydrogenase activity converts yellow MTT into violet formazan which is measured by means of spectrometry.
Human diploid fibroblast BJ (passage 18-22) were seeded into 96-well plate (5.000 cells per well). After 6 hours cultivation medium (DMEM with 5 g/l glucose, 2 mM glutamine, 100 U/ml penicillin, 100 mmg/ml streptomycin, 10% fetal calf serum and sodium bicarbonate) was replaced with the cultivation medium containing test compounds in concentration range of 0-200 µM. Highest concentration was adjusted if the solubility of the compound was limiting. Every concentration was tested in pentaplicate. MTT was added to the cells after 72 hours incubation (final concentration 0.5 mg/ml) and incubation continued for another 3 hours. MTT was solubilised by DMSO and absorbance at 570 nm was measured. Growth inhibition (GI) was estimated using the following equitation: GI=(mean A drug exposed wells−mean Ablank/mean Acontrol wells−mean Ablank)×100%. The GI20 value, the drug concentration causing 20% decrease in mitochondrial dehydrogenase activity, was calculated from the obtained dose response curves.

[9] = tested on: cytokinin-dependent tobacco callus Nicotiana tabacum L. cv. Wisconsin 38; test: Plant cell division: growth of cytokinin-dependent tobacco callus; assay type: cell-based; details: for Activity (%); (s.d.): relative activity at concentration with highest activity, 10^−6 M kinetin set at 100%; for Concentration with highest activity (mol/l): tobacco callus fresh weight increase after four weeks, tested 10^−8 M to 10^−4 M
[10] = Radical scavenging activity determined by ORAC (Oxygen Radical Absorbance Capacity); assay type: biochemical; details: Mean ± SD (n = 3); net area under the curve relative to trolox, equimolar basis
Procedure: The ability of compounds to scavenge free radicals in vitro was determined by Oxygen Radical Absorbance Capacity (ORAC) method. Fluorescein (100 μL, […]) and 25 μL of compound solution were added into each working well in a 96-well microplate preincubated at 37° C. Thereafter, 25 μL of 250 mM AAPH was quickly added, microplate was shaken for 5 s and the fluorescence (Ex. 485 nm, Em. 510 nm) was read every 3 min over 90 min by using microplate reader Infinite 200 (TECAN, Switzerland). The net area under the curve was used to express antioxidant activity relative to trolox which was used as a standard.

[11] = tested on: human diploid fibroblasts (HDF cells; HDF25, HDF45, HDF80); test: Inhibition of human cell aging: senescent cells by beta-galactosidase staining; assay type: cell-based
Procedure: In this example, human diploid fibroblasts (HDF cells of various passage levels: passage 25—designated HDF25; passage 45—designated HDF45; passage 80—designated HDF80) were stained for beta-galactosidase activity. The medium used for the cell cultivation was removed the cells were washed twice in […], and fixed in 2-3 ml of fixing solution comprised of a 2% formaldehyde and 0.2% glutaraldehyde in PBS. The cells were incubated at room temperature for 5 minutes, and then washed twice with PBS. The cells were subsequently incubated at 37° C. […] In this experiment, senescent cells, but no other cells were stained blue due to the action of beta-galactosidase on the substrate.

| Structure (SMILES) | MDA (nmol/g FW) [1] | Activity (%) (s.d.), retention of chlorophyll [4] | GI20 [8] | Activity (%); (s.d.) [9] | ORAC (compound/trolox ratio) [10] | other results |
| --- | --- | --- | --- | --- | --- | --- |
| C/C(=C\CNc1ncnc2c1nc(Cl)n2C1CCCCO1)CO (stereo not drawn) [Compound 5, (E)-8-Chloro-6-(4-hydroxy-3-methylbut-2-en-1-ylamino)-9-(tetrahydropyran-2-yl)-9H-purine] | 13.2 (±1.5) nmol/g FW | 118 (±5) % | >100 µmol/L | 124 (±6) % | – | IC50 ([2]; Homo sapiens, K562, 72 hours): > 50 µmol/L; IC50 ([3]; Homo sapiens): > 50 µmol/L; IC50 ([5]; Homo sapiens, Fibroblast): > 50 µmol/L; IC50 ([6]; Homo sapiens): > 50 µmol/L; IC50 (melanoma cell line G-361; Homo sapiens, G-361, 72 hours): > 50 µmol/L; IC50 ([7]; Homo sapiens, MCF7, 72 hours): > 50 µmol/L |
| Oc1cccc(CNc2ncnc3c2nc(Cl)n3C2CCCCO2)c1 (stereo not drawn) [Compound 9] | 12.4 (±1.3) nmol/g FW | 115 (±4) % | >100 µmol/L | 108 (±3) % | – | IC50 ([2]; 72 hours): > 50 µmol/L; IC50 [3]: > 50 µmol/L; IC50 [5]: > 50 µmol/L; IC50 [6]: > 50 µmol/L; IC50 (melanoma cell line G-361; 72 hours): > 50 µmol/L; IC50 ([7]; 72 hours): > 50 µmol/L; Concentration with highest activity (mol/l) [9]: 10^−6-10^−4 mol/l |
| Oc1cccc(CNc2ncnc3c2nc(Br)n3C2CCCCO2)c1 (stereo not drawn) [Compound 29] | 12.3 (±1.4) nmol/g FW | 117 (±2) % | >100 µmol/L | 112 (±3) % | – | IC50 ([2]; 72 hours): > 50 µmol/L; IC50 [3]: > 50 µmol/L; IC50 [5]: > 50 µmol/L; IC50 [6]: > 50 µmol/L; IC50 (melanoma cell line G-361; 72 hours): > 50 µmol/L; IC50 ([7]; 72 hours): > 50 µmol/L; Concentration with highest activity (mol/l) [9]: 10^−6-10^−4 mol/l |
| Ic1nc2c(NCc3ccccc3)ncnc2n1C1CCCCO1 (stereo not drawn) [Compound 46, 8-Iodo-6-benzylamino-9-(tetrahydropyran-2-yl)-9H-purine] | 10.9 (±1.0) nmol/g FW | – | – | – | 1.4 ± 0.0 | – |
| CN(C)c1nc2c(NCc3ccco3)ncnc2n1C1CCCCO1 (stereo not drawn) [Compound 80, 6-Furfurylamino-8-dimethylamino-9-(tetrahydropyran-2-yl)-9H-purine] | 11.3 (±0.9) nmol/g FW | – | – | – | 2.2 ± 0.1 | – |
| C=CCNc1nc2c(NCc3ccco3)ncnc2n1C1CCCCO1 (stereo not drawn) [Compound 100, 8-Allylamino-6-furfurylamino-9-(tetrahydropyran-2-yl)-9H-purine] | 10.2 (±1.1) nmol/g FW | – | – | – | 32.4 ± 3.2 | – |
| Nc1nc2c(NCc3ccco3)ncnc2n1C1CCCCO1 (stereo not drawn) [Compound 102, 6-furfurylamino-8-amino-9-(tetrahydropyran-2-yl)-9H-purine] | 10.4 (±0.9) nmol/g FW | – | – | – | 4.5 ± 0.1 | – |
| CC(C)=CCNc1nc(Cl)nc2c1nc(N)n2C1CCCCO1 (stereo not drawn) [Compound 107, 8-Amino-6-(3-methylbut-2-en-1-ylamino)-chloro-9-(tetrahydropyran-2-yl)-9H-purine] | 10.5 (±0.5) nmol/g FW | – | – | – | 24.4 ± 1.5 | – |
| NCCNc1nc2c(NCc3ccco3)ncnc2n1C1CCCCO1 (stereo not drawn) [Compound 170, 8-(2-Aminoethylamino)-6-furfurylamino-9-(tetrahydropyran-2-yl)-9H-purine] | 10.4 (±0.7) nmol/g FW | – | – | – | 181.3 ± 5.2 | – |
| c1coc(CNc2ncnc3c2ncn3C2CCCCO2)c1 (stereo not drawn) [KTHP, kinetin-9-tetrahydropyranyl, reference compound] | – | – | – | – | 0.6 ± 0.1 | SENESCENT CELLS (%) HDF25 ([11]; human diploid fibroblasts passage 25, beta-galactosidase staining): 3%; SENESCENT CELLS (%) HDF45 ([11]; human diploid fibroblasts passage 45, beta-galactosidase staining): 4%; SENESCENT CELLS (%) HDF80 ([11]; human diploid fibroblasts passage 80, beta-galactosidase staining): 26% |
